Consider 24 molecules from PMC8584229, “Comparative Antiseizure Analysis of Diverse Natural Coumarin Derivatives in Zebrafish” (International Journal of Molecular Sciences, 2021).

Read-outs that look alike come from different tables or passages of the source.

Experiment [1] concerns PTZ-induced seizure-like behavior (locomotor activity) of zebrafish larvae. Nature of the experiment: Larval zebrafish PTZ seizure model, locomotor analysis (behavioral antiseizure activity). Type of experiment: in vivo, zebrafish (Danio rerio). The settings on record: for antiseizure activity in the locomotor assay (in words) / lowered seizure-like behavior / decrease of PTZ-induced locomotor activity / decrease of seizure-like behavior / lowered PTZ-induced locomotion: 20 mM PTZ; for antiseizure activity in the locomotor assay (in words): up to MTC; for lowered seizure-like behavior: abstract summary, highest effect, 18 h pre-incubation; for decrease of PTZ-induced locomotor activity: range over all test concentrations (MTC and 2-, 4-, 8-fold dilutions). The protocol:
The effect of different concentrations of test compounds was explored on the locomotor behavior of larvae exposed to the GABA-antagonist PTZ. All compounds were tested at four concentrations—the maximum tolerated concentration (MTC) and two-fold, four-fold, and eight-fold dilutions of the MTC. […] In all experiments, as expected, the positive control VPA (1 mM) decreased seizure-like behavior (i.e., PTZ-induced elevated locomotor activity) with an average (±SD) of 44 ± 34%. […] The antiseizure effect depended on either the type of coumarin or the concentration.
Adult zebrafish (Danio rerio) stocks of the AB strain were maintained at 28.5 °C, on a 14/10 h light/dark cycle under standard aquaculture conditions, and fertilized eggs were collected via natural spawning. Embryos were reared under standard light/dark conditions in embryo medium (1.5 mM HEPES, pH 7.1–7.3, 17.4 mM NaCl, 0.21 mM KCl, 0.12 mM MgSO4, 0.18 mM Ca(NO3)2, and 0.6 μM methylene blue) in an incubator at 28.5 °C. For all measurements, 7-days post-fertilization (dpf) larvae were used, which were treated at 6 dpf. The zebrafish experiments described here were approved by the Local Ethics Committee in Lublin (license no: 109/2018), the Ethics Committee of the University of Leuven (approval number 023/2017), and the Belgian Federal Department of Public Health, Food Safety & Environment (approval number LA1210199). All experiments complied with the EU Directive 2010/63/EU for animal experiments.
All compounds were dissolved in dimethyl sulfoxide (DMSO) and diluted in embryo medium to achieve a final DMSO concentration of 1% v/v. Embryo medium prepared with DMSO to a final concentration of 1% v/v served as a vehicle (VHC) control. PTZ (40 mM) was dissolved in embryo medium. The control anticonvulsant used in this study was VPA.
Six-dpf larvae were treated with VHC (embryo medium (1% DMSO)), VPA (1 mM), or tested compound, in 100 µL volume for 18 h, in individual wells of a 96-well plate at 28.5 °C in the dark. Larvae were allowed to habituate for 5 min in a dark chamber of an automated tracking device (ZebraBox system, Viewpoint, Lyon, France). Then, 100 µL of embryo medium or 100 µL of a 40 mM PTZ solution was added to obtain a final concentration of 20 mM [33] and the locomotor activity was measured to evaluate seizure intensity. The total locomotor activity was quantified using ZebraLab software (Viewpoint, Lyon, France). Total locomotor activity was expressed as total distance moved. All tracking experiments were performed at least in triplicate.
(§1) All statistical analyses were performed using GraphPad Prism 5 or 7 software (GraphPad Software, Inc., San Diego, CA, USA). The locomotor activity of zebrafish larvae and electrophysiological antiseizure analysis was evaluated using one-way ANOVA followed by Dunnett’s multiple comparisons test. Values were presented as lardist sum ± standard error of the mean (SEM) or normalized PSD (%) ± standard error of the mean (SEM). Lardist is large movement distance (>6 mm/s), measured in millimeters. Significance levels: * p ≤ 0.05, ** p ≤ 0.01, and *** p ≤ 0.001.

Experiment [2] deals with maximal electroshock-induced seizures. Conditions: cited from earlier work; for ED50 of classic anticonvulsant alone: without umbelliferone.
In experiment [3] the test system is seizure-related locomotor activity of zebrafish. Set-up: method as in PMID 30668376. The settings on record: cited from earlier work.
Experiment [4] relates to PTZ-induced epileptiform activity in the zebrafish larval optic tectum. In words: Local field potential recordings from the optic tectum, power spectral density analysis. Type of experiment: in vivo, zebrafish (Danio rerio). The settings on record: MTC, 18 h incubation; 20 mM PTZ; 20–90 Hz band. As for the experimental part:
To further investigate the results of the behavioral study for all eight selected compounds, local field potential (LFP) measurements were employed. Zebrafish larvae were incubated with the compounds at their MTC for 18 h in darkness and the epileptiform activity was measured in the zebrafish larval optic tectum. A significant reduction in larvae with PTZ-induced epileptiform activity was observed, in comparison to PTZ-treated controls, for all compounds except nodakenetin (Figure 3).
For the rapid, objective, and automated analysis of the LFP recordings, power spectral density (PSD) analysis was performed. This methodology was previously developed and used for zebrafish electrophysiology. It relies on the Welch’s method of averaging the modified periodograms with a 512-point fast Fourier transformation with 80% overlapping 100 sample (100 ms) long segments and a Hamming window. PSDs were estimated for each LFP recording over each 10 Hz frequency band, ranging from 0 to 160 Hz. All examined furanocoumarins at the MTC concentration ameliorated the excitatory effect of preincubation with PTZ. Oxypeucedanin (1), oxypeucedanin hydrate (2), and notopterol (3) decreased normalized PSD per larva to a similar level with 83–89%. […] Pimpinellin (14, an angular furanocoumarin), daphnoretin (17, a simple coumarin derivative), and hyuganin C (18, a dihydropyranocoumarin) decreased normalized PSD by 81, 88, and 65%, respectively.
Non-invasive local field potential recordings were performed from the optic tectum of 7-dpf zebrafish larvae. Larvae were treated with VHC (embryo medium (1% DMSO)) or compound (MTC) in 100 µL volume (in individual wells of a 96-well plate) in darkness (28 °C) for 18 h before measurement. Prior to the recording, 100 µL of VHC (embryo medium) or 40 mM PTZ (to obtain a final concentration of 20 mM) was added to the well for 15 min. After incubation, the larva was immobilized in 2% low-melting-point agarose (Invitrogen, Carlsbad, CA, USA) and the signal electrode, an electrode inside a blunt soda-glass pipet (1412227, Hilgenberg, Germany), was positioned on the skin covering the optic tectum. Electrophysiological recordings where performed as described before. Automated power spectral density analysis was performed using MATLABR2018b (The MathWorks, Inc., Natick, MA, USA), as described before.
as §1

In experiment [5] the test system is GABAA receptor. Also noted: method as in PMID 21749864. The settings on record: cited from earlier work; for EC50: read-out: EC50 (potentiation of IGABA).

In the case of `CC(C)=CCCC(C)=CCOc1c2occc2cc2ccc(=O)oc12` [8-geranyloxypsoralen], the “antiseizure activity in the locomotor assay (in words)” value (“antiseizure activity” below) in experiment [1] was “lack of antiseizure activity”.
On to `CCC1(c2ccccc2)C(=O)NC(=O)NC1=O` [PB, phenobarbital, reference compound], for which the “ED50 of classic anticonvulsant alone” value in experiment [2] (mice) is 35.39 mg/kg.
For `C1CCc2nnnn2CC1` [PTZ, pentylenetetrazole, reference compound], the “increase in seizure-like behavior and locomotor activity (lardist sum), average ± SD” value in experiment [1] (proconvulsant, 20 mM, all experiments) is given as 59 ± 35%.
In the case of `CCCC(CCC)C(=O)O` [VPA, valproic acid, reference compound], in experiment [1] (positive control, 1 mM, all experiments), the “decrease of seizure-like behavior (PTZ-induced elevated locomotor activity), average ± SD” value turned out to be 44 ± 34%. Besides, the “ED50 of classic anticonvulsant alone” value in experiment [2] (mice) was 281.4 mg/kg.
With `CC(C)=CCC/C(C)=C/COc1c2ccoc2cc2oc(=O)ccc12` [bergamottin], the “inhibition (antiseizure, locomotor activity)” value in experiment [3] (most active concentration, 2 µM) is listed as 26%.
For `COc1c2ccoc2cc2oc(=O)ccc12` [bergapten], the “protective properties in MES test (in words)” value in experiment [2] (mice) is reported as “did not show protective properties”.
For `COc1c2ccoc2c(OC[C@@H](O)C(C)(C)O)c2oc(=O)ccc12` [byakangelicin], in experiment [1], the “antiseizure activity” value is listed as “lack of antiseizure activity”.
With `COc1c2ccoc2c(OC[C@H]2OC2(C)C)c2oc(=O)ccc12` [byakangelicol], the “antiseizure activity” value in experiment [1] is on record as “lack of antiseizure activity”.
For `COc1cc2cc(Oc3ccc4ccc(=O)oc4c3)c(=O)oc2cc1O` [daphnoretin], in experiment [1], the lowered seizure-like behavior is 65% and the “decrease of PTZ-induced locomotor activity” value is recorded as 42–65%. The “decrease of normalized PSD (PTZ-induced elevation in power spectral density)” value (“decrease of normalized PSD” for short) in experiment [4] is given as 88%.
With `CC1(C)O[C@@H]1COc1c2occc2cc2ccc(=O)oc12` [heraclenin, reference compound], in experiment [5], the “enhancement of IGABA” value is “greater than 20%”.
As to `CC[C@H](C)C(=O)OC1c2c(ccc3ccc(=O)oc23)OC(C)(C)C1OC(C)=O` (stereo partly shown) [hyuganin C], the “decrease of seizure-like behavior” value in experiment [1] (10 µM) is given as 27%; in experiment [1] (20 µM) it was 35%. In experiment [1], this molecule registered a lowered seizure-like behavior of 35%. The “decrease of normalized PSD” value in experiment [4] is 65%.
In the case of `CC(C)=CCOc1c2occc2cc2ccc(=O)oc12` [imperatorin], the “antiseizure activity” value in experiment [1] is “lack of antiseizure activity”. Besides, the “raised threshold for electroconvulsions” value in experiment [2] (50 mg/kg i.p., mice) is 38%; in experiment [2] (100 mg/kg i.p., mice), 68%. Besides, in experiment [5], the “enhancement of IGABA” value was “greater than 20%”.
Take `CC(C)=CCOc1c2ccoc2cc2oc(=O)ccc12` [isoimperatorin]: the “enhancement of IGABA” value in experiment [5] is listed as “greater than 20%”.
The molecule `CC(C)(O)[C@H]1Cc2cc3ccc(=O)oc3cc2O1` [nodakenetin] yielded a lowered seizure-like behavior in experiment [1] of 29%. For the same molecule, in experiment [4], the “decrease of normalized PSD” value is 26%.
On to `CC(C)(O[C@@H]1O[C@H](CO)[C@@H](O)[C@H](O)[C@H]1O)[C@H]1Cc2cc3ccc(=O)oc3cc2O1` [nodakenin], for which, in experiment [1], the “antiseizure activity” value is “inactive”. Also, the “decrease of normalized PSD” value in experiment [4] was 77%.
Take `CC(C)=CC(O)C/C(C)=C/COc1c2ccoc2cc2oc(=O)ccc12` (stereo not shown) [notopterol]: the entries for the “lowered PTZ-induced locomotion” value in experiment [1] (2 µM) and in experiment [1] (0.25–1 µM) were 54% and 35–39%, respectively. Further, in experiment [1], the lowered seizure-like behavior is recorded as 54%. In experiment [4], the “decrease of normalized PSD” value was 83–89%.
On to `COc1ccc2ccc(=O)oc2c1CC=C(C)C` [osthole], for which the “antiseizure activity” value in experiment [1] is recorded as “not active”. Also, the “protection of the animals against MES” value in experiment [2] (266 and 259 mg/kg i.p., between 15 and 30 min before the test) was around 90%. The “effect on the anticonvulsant activity of CBZ, PB, PHT and VPA on co-administration (in words)” value in experiment [2] (mice) was “did not have a significant effect”. Besides, in experiment [5], the “current in the absence of GABA (in words)” value is on record as “neither of them induced a current in the absence of GABA”; the “enhancement of IGABA” value is on record as “greater than 20%”; the EC50 – broadly, the concentration at which the effect is half-maximal – is 14 ± 1 µM.
`CC(C)(O)[C@H](O)COc1c2ccoc2cc2oc(=O)ccc12` [oxypeucedanin hydrate]: in experiment [1], the lowered seizure-like behavior turned out to be 74% and the “decrease of PTZ-induced locomotor activity” value was 43–74%. Further, in experiment [4], the “decrease of normalized PSD” value was 83–89%.
Regarding `CC1(C)O[C@H]1COc1c2ccoc2cc2oc(=O)ccc12` [oxypeucedanin], in experiment [1], the lowered seizure-like behavior came out at 38% and the “decrease of PTZ-induced locomotor activity” value is 23–38%. Further, the “protective properties in MES test (in words)” value in experiment [2] (mice) is “did not show protective properties”. Besides, in experiment [5], the “current in the absence of GABA (in words)” value is given as “neither of them induced a current in the absence of GABA”, the “enhancement of IGABA” value is reported as “greater than 20%” and the EC50 was 25 ± 8 µM. In addition, in experiment [4], the “decrease of normalized PSD” value is 83–89%.
As to `COc1c2ccoc2c(OCC=C(C)C)c2oc(=O)ccc12` [phellopterin], in experiment [1], the “antiseizure activity” value was “lack of antiseizure activity”. For the same molecule, in experiment [5], the “enhancement of IGABA” value was “greater than 20%”.
`COc1c(OC)c2occc2c2oc(=O)ccc12` [pimpinellin] returned a lowered seizure-like behavior in experiment [1] of 60%. The “enhancement of IGABA” value in experiment [5] was “greater than 20%”. Moreover, in experiment [4], the “decrease of normalized PSD” value turned out to be 81%.
For the molecule `O=c1ccc2ccc(O)cc2o1` [umbelliferone, 7-hydroxycoumarin], the “antiseizure activity” value in experiment [1] is “not active”. In experiment [2] (150 mg/kg i.p., 30 min before electroshock), the “increase of the electroshock threshold” value is given as “around 37%”.
Turning to `COc1c2occc2cc2ccc(=O)oc12` [xanthotoxin, reference compound], in experiment [2] (administered 60 min before electroconvulsion, mice), the “ED50 (anticonvulsant activity)” value was 219.1 ± 4.7 mg/kg.
In the case of lucidafuranocoumarin A, the “inhibition (antiseizure, locomotor activity)” value in experiment [3] (16 µM) is 69%.
